Columns and labels:
Assay type in all cases: in vivo
Conditions in all cases: 312 h, evaluated after 13 days, 100=total damage to plant, 0=no damage to plant
[1] = test system: Alopecurus myosuroides (ALOMY); assay: Test Example B, post-emergence herbicidal test
Procedure: (§1) Seeds of a variety of test species were sown in standard soil in pots. After cultivation for one day (pre-emergence) or after 8 days cultivation (post-emergence) under controlled conditions in a glasshouse (at 24/16° C., day/night; 14 hours light; 65% humidity), the plants were sprayed with an aqueous spray solution derived from the formulation of the technical active ingredient in acetone/water (50:50) solution containing 0.5% Tween 20 (polyoxyethelyene sorbitan monolaurate, CAS RN 9005-64-5). The test plants were then grown in a glasshouse under controlled conditions in a glasshouse (at 24/16° C., day/night; 14 hours light; 65% humidity) and watered twice daily. After 13 days for pre and post-emergence, the test was evaluated (100=total damage to plant; 0=no damage to plant). Test Plants: Setaria faberi (SETFA), Alopecurus myosuroides (ALOMY), Echinochloa crus-galli (ECHCG), and Avena fatua (AVEFA).

Avena fatua (AVEFA) [2] = assay: Test Example B, post-emergence herbicidal test
Procedure: as §1

[3] = test system: Echinochloa crus-galli (ECHCG); assay: Test Example B, post-emergence herbicidal test
Procedure: as §1

[4] = test system: Alopecurus myosuroides (ALOMY); assay: Test Example B, pre-emergence herbicidal test
Procedure: as §1

Avena fatua (AVEFA) [5] = assay: Test Example B, pre-emergence herbicidal test
Procedure: as §1

[6] = test system: Echinochloa crus-galli (ECHCG); assay: Test Example B, pre-emergence herbicidal test
Procedure: as §1

CCc1ccc(-c2ccc(Cl)c(Cl)c2)cc1C1=C(O)[C@H]2[C@H]3CC[C@H](C3)[C@H]2C1=O [Compound T31]
pest or weed control at 250 g/ha [1]: 60%
pest or weed control at 250 g/ha (Avena fatua (AVEFA) [2]): 70%
pest or weed control at 250 g/ha [3]: 100%
pest or weed control at 250 g/ha [4]: 20%
pest or weed control at 250 g/ha (Avena fatua (AVEFA) [5]): 70%
pest or weed control at 250 g/ha [6]: 80%

CCc1ccc(-c2ccc(Cl)c(C(F)(F)F)c2)cc1C1=C(O)[C@H]2[C@H]3CC[C@H](C3)[C@H]2C1=O [Compound T33]
pest or weed control at 250 g/ha [1]: 70%
pest or weed control at 250 g/ha (Avena fatua (AVEFA) [2]): 70%
pest or weed control at 250 g/ha [3]: 90%
pest or weed control at 250 g/ha [4]: 20%
pest or weed control at 250 g/ha (Avena fatua (AVEFA) [5]): 30%
pest or weed control at 250 g/ha [6]: 100%

CCc1ccc(-c2ccc(Cl)s2)cc1C1=C(O)[C@H]2[C@H]3CC[C@H](C3)[C@H]2C1=O [Compound T34]
pest or weed control at 250 g/ha [1]: 60%
pest or weed control at 250 g/ha (Avena fatua (AVEFA) [2]): 80%
pest or weed control at 250 g/ha [3]: 90%
pest or weed control at 250 g/ha [4]: 30%
pest or weed control at 250 g/ha (Avena fatua (AVEFA) [5]): 40%
pest or weed control at 250 g/ha [6]: 100%

CCc1ccc(-c2ccc(Cl)c(F)c2)cc1C1=C(O)[C@H]2[C@H]3CC[C@H](C3)[C@H]2C1=O [Compound T35]
pest or weed control at 250 g/ha [1]: 90%
pest or weed control at 250 g/ha (Avena fatua (AVEFA) [2]): 90%
pest or weed control at 250 g/ha [3]: 90%
pest or weed control at 250 g/ha [4]: 80%
pest or weed control at 250 g/ha (Avena fatua (AVEFA) [5]): 70%
pest or weed control at 250 g/ha [6]: 90%

CCc1ccc(-c2ccc(Cl)nc2)cc1C1=C(O)[C@H]2[C@H]3CC[C@H](C3)[C@H]2C1=O [Compound T36]
pest or weed control at 250 g/ha [1]: 0%
pest or weed control at 250 g/ha (Avena fatua (AVEFA) [2]): 20%
pest or weed control at 250 g/ha [3]: 50%
pest or weed control at 250 g/ha [4]: 30%
pest or weed control at 250 g/ha (Avena fatua (AVEFA) [5]): 40%
pest or weed control at 250 g/ha [6]: 80%

CCc1ccc(-c2ccc(Cl)nc2Cl)cc1C1=C(O)[C@H]2[C@H]3CC[C@H](C3)[C@H]2C1=O [Compound T37]
pest or weed control at 250 g/ha [1]: 70%
pest or weed control at 250 g/ha (Avena fatua (AVEFA) [2]): 0%
pest or weed control at 250 g/ha [3]: 90%
pest or weed control at 250 g/ha [4]: 50%
pest or weed control at 250 g/ha (Avena fatua (AVEFA) [5]): 70%
pest or weed control at 250 g/ha [6]: 90%

CCc1ccc(-c2c(F)cc(Cl)cc2Cl)cc1C1=C(O)[C@H]2[C@H]3CC[C@H](C3)[C@H]2C1=O [Compound T38]
pest or weed control at 250 g/ha [1]: 30%
pest or weed control at 250 g/ha (Avena fatua (AVEFA) [2]): 40%
pest or weed control at 250 g/ha [3]: 90%
pest or weed control at 250 g/ha [4]: 0%
pest or weed control at 250 g/ha (Avena fatua (AVEFA) [5]): 0%
pest or weed control at 250 g/ha [6]: 80%

CCc1ccc(-c2ccc(Cl)c(F)c2Cl)cc1C1=C(O)[C@H]2[C@H]3CC[C@H](C3)[C@H]2C1=O [Compound T39]
pest or weed control at 250 g/ha [1]: 70%
pest or weed control at 250 g/ha (Avena fatua (AVEFA) [2]): 50%
pest or weed control at 250 g/ha [3]: 100%
pest or weed control at 250 g/ha [4]: 40%
pest or weed control at 250 g/ha (Avena fatua (AVEFA) [5]): 70%
pest or weed control at 250 g/ha [6]: 100%

CCc1ccc(-c2ccc(Cl)c(F)c2F)cc1C1=C(O)[C@H]2[C@H]3CC[C@H](C3)[C@H]2C1=O [Compound T40]
pest or weed control at 250 g/ha [1]: 90%
pest or weed control at 250 g/ha (Avena fatua (AVEFA) [2]): 90%
pest or weed control at 250 g/ha [3]: 100%
pest or weed control at 250 g/ha [4]: 50%
pest or weed control at 250 g/ha (Avena fatua (AVEFA) [5]): 60%
pest or weed control at 250 g/ha [6]: 100%

CCc1ccc(-c2ccc(Cl)c(Cl)c2F)cc1C1=C(O)[C@H]2[C@H]3CC[C@H](C3)[C@H]2C1=O [Compound T41]
pest or weed control at 250 g/ha [1]: 0%
pest or weed control at 250 g/ha (Avena fatua (AVEFA) [2]): 60%
pest or weed control at 250 g/ha [3]: 90%
pest or weed control at 250 g/ha [4]: 0%
pest or weed control at 250 g/ha (Avena fatua (AVEFA) [5]): 0%
pest or weed control at 250 g/ha [6]: 50%

CCc1ccc(-c2c(F)cc(Cl)cc2Cl)cc1C1=C(O)[C@H]2[C@H]3CC[C@H](CC3)[C@H]2C1=O [Compound T42]
pest or weed control at 250 g/ha [1]: 0%
pest or weed control at 250 g/ha (Avena fatua (AVEFA) [2]): 40%
pest or weed control at 250 g/ha [3]: 80%
pest or weed control at 250 g/ha [4]: 0%
pest or weed control at 250 g/ha (Avena fatua (AVEFA) [5]): 0%
pest or weed control at 250 g/ha [6]: 0%

CCc1ccc(-c2ccc(Cl)c(F)c2Cl)cc1C1=C(O)[C@H]2[C@H]3CC[C@H](CC3)[C@H]2C1=O [Compound T43]
pest or weed control at 250 g/ha [1]: 70%
pest or weed control at 250 g/ha (Avena fatua (AVEFA) [2]): 30%
pest or weed control at 250 g/ha [3]: 100%
pest or weed control at 250 g/ha [4]: 0%
pest or weed control at 250 g/ha (Avena fatua (AVEFA) [5]): 20%
pest or weed control at 250 g/ha [6]: 40%

CCc1ccc(-c2ccc(Cl)c(F)c2F)cc1C1=C(O)[C@H]2[C@H]3CC[C@H](CC3)[C@H]2C1=O [Compound T44]
pest or weed control at 250 g/ha [1]: 90%
pest or weed control at 250 g/ha (Avena fatua (AVEFA) [2]): 80%
pest or weed control at 250 g/ha [3]: 100%
pest or weed control at 250 g/ha [4]: 0%
pest or weed control at 250 g/ha (Avena fatua (AVEFA) [5]): 20%
pest or weed control at 250 g/ha [6]: 70%

CCc1ccc(-c2ccc(F)cc2)cc1C1=C(O)[C@H]2[C@H]3CC[C@H](CC3)[C@H]2C1=O [Compound T46]
pest or weed control at 250 g/ha [1]: 50%
pest or weed control at 250 g/ha (Avena fatua (AVEFA) [2]): 30%
pest or weed control at 250 g/ha [3]: 100%
pest or weed control at 250 g/ha [4]: 20%
pest or weed control at 250 g/ha (Avena fatua (AVEFA) [5]): 0%
pest or weed control at 250 g/ha [6]: 80%

Reference: US20120065066A1, “NOVEL HERBICIDES” (SYNGENTA CROP PROTECTION LLC, priority 2009, published 2012)
